Test results: patent publication US20060264422A1, “Use of taurolidine as enhancer of the complement system” (priority 2005, published 2006)

Key:
[1] = tested on: complement system; test: CH50 assay (hemolysis of sensitized sheep erythrocytes by human serum); assay type: biochemical
Description: Using the CH50 assay, it is possible to assess functionally the total activity of the complement system, especially the classic activation pathway. […] In accordance with the protocol, a dilution series (1:20-1:480) was prepared for each condition and washed sheep erythrocytes which had been preincubated with hemolysin reagent were then added. During subsequent incubation at 37° C. for exactly 1 hour the erythrocytes were lysed depending on the activity of the complement system. In each experiment, a negative control (no hemolysis), a sample with 50% hemolysis (CH50, by dilution with dist. water) and a sample with 100% hemolysis (CH100, by dilution with dist. water) were analyzed in each case. After a final centrifugation, in each case 1 ml of the supernatant of each sample was removed and the absorption at 541 nm was determined photometrically. The determined absorptions were finally plotted against the dilutions. The activity (or the ability to lyse) of the complement system under the respective conditions could be assessed by the shape of the curves (shift to the left=complement activation) and by determining the dilution at which 50% of the erythrocytes have been lysed.

[2] = tested on: C3a; test: ELISA of complement anaphylatoxin C3a in serum; assay type: biochemical, human
Description: (§1) Complement anaphylatoxins C5a and C3a and the lytic complex (MAC, C5b-9) in the serum of healthy volunteers were determined quantitatively using commercially available ELISA (“enzyme-linked immunosorbent assay”) test systems. As described above, initially serum samples having various concentrations of taurolidine (0.1-5%, in parallel with samples containing Ringer solution in corresponding dilution ratios=controls) were incubated for 30 minutes at 37° C. The samples were then diluted according to the protocol of the manufacturer and pipetted into the wells of the microtiter plate. The subsequent incubation/washing steps were carried out according to the protocol of the manufacturer. […] The extinction was measured using an ELISA plate reader and the values were then converted to concentrations using the standard samples which had also been measured.

[3] = tested on: membrane attack complex (MAC, C5b-9); test: ELISA of lytic complex (MAC, C5b-9) in serum; assay type: biochemical, human; settings: all dosis ranges studied (0.1-5% taurolidine); FIG. 7
Description: as §1

[4] = tested on: C5a; test: ELISA of complement anaphylatoxin C5a in serum; assay type: biochemical, human
Description: as §1

[5] = at 0.5% taurolidine (concentration maximum)

## O=S1(=O)CCN(CN2CCS(=O)(=O)NC2)CN1 [taurolidine, 4,4′-methylenebis-(1,2,4-thiadiazine-1,1-dioxide)]
[1]; human serum of healthy volunteers incubated with 0.1-1% taurolidine, 30 min, 37° C., FIGS. 1-3
  hemolytic activity (activity of the complement system): significantly increases
[1]; incubation at 0-4° C., FIG. 2
  complement activation (hemolytic activity), temperature dependence: not at 0-4 °C
[2]; at 0.1% taurolidine (minimum)
  C3a: no or even a tendency of reduced
[2]; [5]
  formation of C3a: enhances the formation
[2]; serum with taurolidine 0.1-5%, 30 min, 37° C., FIG. 4
  concentration of complement component C3a compared to untreated serum: increased compared to untreated serum
[3]
  serum concentration of the membrane attack complex (MAC): elevated significantly
[4]; at 0.1% taurolidine (minimum)
  C5a: no or even a tendency of reduced
[4]; [5]
  formation of C5a: enhances the formation
[4]; serum with taurolidine 0.1-5%, 30 min, 37° C., FIGS. 5-6
  concentration of complement component C5a compared to untreated serum: increased compared to untreated serum
